{"source": "paper PMC10600185", "about": "“Development and pharmaceutical investigation of novel cervical cancer-targeting and redox-responsive melittin conjugates” (Scientific Reports, 2023)", "key": {"[1]": {"experiment": "MTT cytotoxicity assay, NSF", "format": "cell-based", "settings": "human, normal skin fibroblast (NSF) cells, 24 h treatment, serial dilutions 256–1 µg/mL, concentration by modified Mel peptide content, mean of three replicates", "description": "(§1) C-33A ([…], ATCC), HeLa ([…], ATCC), 3T3 (CRL-1658™, ATCC), Normal Skin Fibroblast (CRL-2091™, ATCC) and MCF-7 (HTB-22™, ATCC) cell lines were cultured in complete EMEM, DMEM, DMEM, EMEM, and EMEM (containing 1% Pen/Strep antibiotic and 10% FBS), respectively. Cells from the different lines were seeded at a density of 5 × 10^4 cells/well in 100 µL medium placed in a flat-bottom 96-well plate and incubated at 5% CO2 and 37 °C. After 24 h, the medium was discarded from the 96-well plate. Serial dilutions of peptide/conjugate (i.e., 256–1 µg/mL) were prepared in triplicate in 100 µL complete medium then added onto each well and incubated at 5% CO2 and 37 °C for 24 h. The cytotoxicity was determined by MTT test (MTT, Cell Proliferation Kit, Roche) and measured at 550–690 nm on a microplate reader. The cell cytotoxicity was calculated with respect to control groups treated with only complete medium."}, "[2]": {"experiment": "MTT cytotoxicity assay, 3T3", "format": "cell-based", "settings": "mouse, 3T3 cells (embryonic fibroblasts), 24 h treatment, serial dilutions 256–1 µg/mL, concentration by modified Mel peptide content, mean of three replicates", "description": "as §1"}, "human red blood cells": {"system": "human red blood cells", "experiment": "Hemolytic activity", "format": "cell-based", "settings": "human erythrocytes in tris-saline pH 7.2, 256–4 µg/mL, 37 °C, 1 h, absorbance 414 nm, triplicate", "description": "30 µL of fresh human blood was added to 10 mL of autoclaved tris-saline (10 mM tris, 150 mM NaCl, pH 7.2) and centrifuged at 1500 rpm for 5 min three times. 100 µL of the blood mix was added to each well of a round-bottom 96-well plate. Concentrations of freshly prepared peptide/conjugate (i.e., ranging from 256–4 µg/mL) in tris-saline (100 µL of total volume) were added to the 96-well plate containing the blood mix and the plate kept at 37 °C for 1 h. Triton X-100 in 10% DMSO-treated blood mix and blood mix without addition were used as positive and negative controls, respectively. Next, the plate was centrifuged for 10 min at 1500 rpm. The supernatants were taken into a new round-bottom 96-well plate and measured at 414 nm using a microplate reader. All samples were used as a triplicate."}, "[3]": {"experiment": "HPLC % ACN at elution as measure of hydrophobicity", "format": "physicochemical", "settings": "semi-preparative RP-HPLC, C-18 column; for HPLC gradient (ACN %) of the purified peak: 0–100% ACN (0.025% TFA) gradient, 30 min for FA conjugates, 40 min for Target conjugates, % ACN used as hydrophobicity", "description": "The peptide/conjugate was purificated and analyzed (data not shown) using HPLC (Agilent Technologies, USA) with C-18 column (RPC 250 × 10 mm ID hydrophobic 6 µm, Agilent VariTide). For the CM–FA and MC–FA conjugates’ purification, we used a 0–100% ACN (0.025% TFA) gradient for 30 min, and for the CM–Target, and MC–Target conjugates, we used a 0–100% ACN (0.025% TFA) gradient for 40 min. Peptide methods for HPLC purification are provided in Supp. Data 1. A Nicolet iS10 FT-IR was used to obtain infrared spectra of the peptide/conjugates in the range of 4000–500 cm^−1. The chemical structure of the peptide/conjugates was characterized by proton nuclear resonance (^1H NMR) spectroscopy using a 400-MHz Burker NMR spectrometer in DMSO-d6. To evaluate the molecular weight of the synthesized peptide, LC–MS/MS (6420 Triple Quad, Agilent Technologies) was used."}, "NSF cells": {"system": "NSF cells", "experiment": "ROS assay (DCFDA), NSF", "format": "cell-based, human", "settings": "200 µM TBHP positive control, Ex/Em 485/535 nm, data not shown", "description": "(§2) To evaluate the ROS activity of peptide/conjugates, a ROS kit (DCFDA/H2DCFDA—Cellular ROS Assay Kit, Abcam) was applied to C33A, HeLa, and Normal Skin Human Fibroblast cells. 25,000 cells/well were seeded on a flat-bottom 96-well plate and incubated at 37 °C and 5% CO2. After 24 h, the media was discarded, and the wells were washed with 1 × buffer. DCFDA was then added to wells (except for non-stained control cells) and all plates were incubated for 45 min at 37 °C and 5% CO2 in the dark. […] A positive control (TBHP) was also applied. The results were assessed using a microplate reader (Varioskan Flash, Thermo Scientific) at Ex/Em: 485/535 nm. The negative control (non-stained cells) was subtracted from the cell control and drug samples for calculation."}, "C33A cells": {"system": "C33A cells", "experiment": "ROS assay (DCFDA), C33A", "format": "cell-based, human", "settings": "200 µM TBHP positive control, Ex/Em 485/535 nm, data not shown", "description": "as §2"}, "HeLa cells": {"system": "HeLa cells", "experiment": "ROS assay (DCFDA), HeLa", "format": "cell-based, human", "settings": "200 µM TBHP positive control, Ex/Em 485/535 nm, data not shown", "description": "as §2"}, "S. aureus 25923": {"system": "S. aureus 25923", "experiment": "Minimum inhibitory concentration, S. aureus", "format": "cell-based, Staphylococcus aureus", "design": "key: No inhibitory effects were observed at any of the concentrations tested in the areas marked “X” and bacterial growth was seen", "settings": "MHB, two-fold dilutions 1024–0.5 µg/mL, 37 °C overnight, OD 600 nm", "description": "(§3) The MIC of the conjugates on E. coli and S. aureus were determined. 95 µL of the MHB containing serial two-fold dilutions of each peptide/conjugate were added to a round-bottom 96-well plate from a maximum concentration of 1024 µg/mL to 0.5 µg/mL. Bacterial samples were taken from an exponentially growing culture in MHB and adjusted to 1.5 × 10^6 CFU/mL. 5 µL of the prepared bacterial suspension was added to each well and incubated at 37 °C, overnight. The bacterial growth was measured using a microplate reader (Gen5 Synergy HT, Biotek) at 600 nm. Broth containing only bacteria was used as a positive control while broth without bacteria was used as a negative control."}, "cell lines": {"system": "cell lines", "experiment": "Cytotoxicity of the targeting peptide alone on the cell lines", "format": "cell-based", "settings": "tested alone on cell lines, data not shown", "description": "as §1"}, "E. coli 25922": {"system": "E. coli 25922", "experiment": "Minimum inhibitory concentration, E. coli", "format": "cell-based, Escherichia coli", "design": "key: No inhibitory effects were observed at any of the concentrations tested in the areas marked “X” and bacterial growth was seen", "settings": "MHB, two-fold dilutions 1024–0.5 µg/mL, 37 °C overnight, OD 600 nm", "description": "as §3"}}, "data": [{"molecule": "CC[C@H](C)[C@H](NC(=O)CNC(=O)[C@@H](N)CS)C(=O)NCC(=O)N[C@@H](C)C(=O)N[C@H](C(=O)N[C@@H](CC(C)C)C(=O)N[C@@H](CCCCN)C(=O)N[C@H](C(=O)N[C@@H](CC(C)C)C(=O)N[C@H](C(=O)N[C@H](C(=O)NCC(=O)N[C@@H](CC(C)C)C(=O)N1CCC[C@H]1C(=O)N[C@@H](C)C(=O)N[C@@H](CC(C)C)C(=O)N[C@H](C(=O)N[C@@H](CO)C(=O)N[C@@H](Cc1c[nH]c2ccccc12)C(=O)N[C@H](C(=O)N[C@@H](CCCCN)C(=O)N[C@@H](CCCNC(=N)N)C(=O)N[C@@H](CCCCN)C(=O)N[C@@H](CCCNC(=N)N)C(=O)N[C@@H](CCC(N)=O)C(=O)N[C@@H](CCC(N)=O)C(N)=O)[C@@H](C)CC)[C@@H](C)CC)[C@@H](C)O)[C@@H](C)O)C(C)C)C(C)C", "note": "[C-Mel]", "values": [{"measurement": "IC50 at 24 h", "setting": "[1]", "result": 53.4, "unit": "µg/mL"}, {"measurement": "IC50 at 24 h", "setting": "[2]", "result": 84, "unit": "µg/mL"}, {"measurement": "Hemotoxicity ranking among peptides/conjugates", "setting": "human red blood cells", "result": "highest hemotoxicity"}, {"measurement": "HPLC gradient (ACN %) of the purified peak", "setting": "[3]", "result": "77–79%"}]}, {"molecule": "CC[C@H](C)[C@H](NC(=O)CN)C(=O)NCC(=O)N[C@@H](C)C(=O)N[C@H](C(=O)N[C@@H](CC(C)C)C(=O)N[C@@H](CCCCN)C(=O)N[C@H](C(=O)N[C@@H](CC(C)C)C(=O)N[C@H](C(=O)N[C@H](C(=O)NCC(=O)N[C@@H](CC(C)C)C(=O)N1CCC[C@H]1C(=O)N[C@@H](C)C(=O)N[C@@H](CC(C)C)C(=O)N[C@H](C(=O)N[C@@H](CO)C(=O)N[C@@H](Cc1c[nH]c2ccccc12)C(=O)N[C@H](C(=O)N[C@@H](CCCCN)C(=O)N[C@@H](CCCNC(=N)N)C(=O)N[C@@H](CCCCN)C(=O)N[C@@H](CCCNC(=N)N)C(=O)N[C@@H](CCC(N)=O)C(=O)N[C@@H](CCC(N)=O)C(N)=O)[C@@H](C)CC)[C@@H](C)CC)[C@@H](C)O)[C@@H](C)O)C(C)C)C(C)C", "note": "[Mel, Melittin]", "values": [{"measurement": "HPLC gradient (ACN %) of the purified peak", "setting": "[3]", "result": "63–72%"}, {"measurement": "Hydrophobicity as % ACN at elution", "setting": "[3]; ACN (0.025% TFA) gradient", "result": 67, "unit": "% ACN"}]}, {"molecule": "CC[C@H](C)[C@H](NC(=O)CN)C(=O)NCC(=O)N[C@@H](C)C(=O)N[C@H](C(=O)N[C@@H](CC(C)C)C(=O)N[C@@H](CCCCN)C(=O)N[C@H](C(=O)N[C@@H](CC(C)C)C(=O)N[C@H](C(=O)N[C@H](C(=O)NCC(=O)N[C@@H](CC(C)C)C(=O)N1CCC[C@H]1C(=O)N[C@@H](C)C(=O)N[C@@H](CC(C)C)C(=O)N[C@H](C(=O)N[C@@H](CO)C(=O)N[C@@H](Cc1c[nH]c2ccccc12)C(=O)N[C@H](C(=O)N[C@@H](CCCCN)C(=O)N[C@@H](CCCNC(=N)N)C(=O)N[C@@H](CCCCN)C(=O)N[C@@H](CCCNC(=N)N)C(=O)N[C@@H](CCC(N)=O)C(=O)N[C@@H](CCC(N)=O)C(=O)N[C@@H](CS)C(N)=O)[C@@H](C)CC)[C@@H](C)CC)[C@@H](C)O)[C@@H](C)O)C(C)C)C(C)C", "note": "[Mel-C]", "values": [{"measurement": "IC50 at 24 h", "setting": "[1]", "result": 43.7, "unit": "µg/mL"}, {"measurement": "IC50 at 24 h", "setting": "[2]", "result": 130, "unit": "µg/mL"}, {"measurement": "HPLC gradient (ACN %) of the purified peak", "setting": "[3]", "result": "77–79%"}]}, {"molecule": "CC(C)(C)OO", "note": "[TBHP]", "values": [{"measurement": "ROS level, NSF", "setting": "NSF cells", "result": 36.46, "unit": "RFU"}, {"measurement": "ROS level, C33A", "setting": "C33A cells", "result": 60.70, "unit": "RFU"}, {"measurement": "ROS level, HeLa", "setting": "HeLa cells", "result": 51.26, "unit": "RFU"}]}, {"molecule": "CKQNLAEG [Targeting peptide, CSP-KQ peptide (CKQNLAEG), specific to cervical squamous cell carcinoma tissue]", "values": [{"measurement": "Minimum inhibitory concentration, S. aureus 25923", "setting": "S. aureus 25923", "result": "X"}, {"measurement": "Toxicity of the peptide alone on cell lines", "setting": "cell lines", "result": "non-toxic"}, {"measurement": "Minimum inhibitory concentration, E. coli 25922", "setting": "E. coli 25922", "result": "X"}, {"measurement": "HPLC gradient (ACN %) of the purified peak", "setting": "[3]", "result": "53–57%"}]}]}
